From patent publication US6875761B2 (Eisai Co., Ltd., priority 1997, dated 2005)
Structures can show the parent of a compound that is named as a salt.

Key:
serotonin 1A receptor = biological target: T1, serotonin 1A receptor (Rattus norvegicus, UniProt P19327); experiment: Binding test on [3H] 8-hydroxy-dipropylaminotetralin, hippocampus receptor fraction; design: species or system SD rats; settings: rat hippocampus receptor fraction, 0.5 nM [3H] 8-OH-DPAT, room temperature 30 min; read-out: 5HT1
T1 construct: To the receptor fraction of the hippocampus were added a test compound and 0.5 nM of [^3H]; 8-hydroxy-dipropylaminotetralin; from tissue; host or cells: rat hippocampus membrane fraction
T1 sequence (P19327 1-422): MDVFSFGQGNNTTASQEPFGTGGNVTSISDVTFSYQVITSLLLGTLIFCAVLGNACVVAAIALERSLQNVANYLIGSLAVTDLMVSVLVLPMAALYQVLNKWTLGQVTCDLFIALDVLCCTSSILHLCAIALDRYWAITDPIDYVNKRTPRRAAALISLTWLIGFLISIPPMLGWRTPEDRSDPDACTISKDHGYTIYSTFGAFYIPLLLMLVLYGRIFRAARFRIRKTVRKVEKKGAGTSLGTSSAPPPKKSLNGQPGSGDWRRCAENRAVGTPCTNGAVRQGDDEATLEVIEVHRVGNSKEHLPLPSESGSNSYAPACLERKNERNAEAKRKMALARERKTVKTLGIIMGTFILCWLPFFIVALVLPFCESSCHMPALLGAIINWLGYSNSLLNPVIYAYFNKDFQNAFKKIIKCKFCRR

serotonin 2 receptor = biological target: T2, serotonin 2 receptor (Rattus norvegicus, UniProt P14842); experiment: Binding test on [3H] ketanserin, cerebral cortex receptor fraction; design: species or system SD rats; settings: 0.3 nM [3H] ketanserin, 37° C. 15 min, read-out: 5HT2
T2 construct: To the receptor fraction of the cerebral cortex were added a test compound and 0.3 nM of [^3H] ketanserin; from tissue; host or cells: rat cerebral cortex membrane fraction
T2 sequence (P14842 whole entry): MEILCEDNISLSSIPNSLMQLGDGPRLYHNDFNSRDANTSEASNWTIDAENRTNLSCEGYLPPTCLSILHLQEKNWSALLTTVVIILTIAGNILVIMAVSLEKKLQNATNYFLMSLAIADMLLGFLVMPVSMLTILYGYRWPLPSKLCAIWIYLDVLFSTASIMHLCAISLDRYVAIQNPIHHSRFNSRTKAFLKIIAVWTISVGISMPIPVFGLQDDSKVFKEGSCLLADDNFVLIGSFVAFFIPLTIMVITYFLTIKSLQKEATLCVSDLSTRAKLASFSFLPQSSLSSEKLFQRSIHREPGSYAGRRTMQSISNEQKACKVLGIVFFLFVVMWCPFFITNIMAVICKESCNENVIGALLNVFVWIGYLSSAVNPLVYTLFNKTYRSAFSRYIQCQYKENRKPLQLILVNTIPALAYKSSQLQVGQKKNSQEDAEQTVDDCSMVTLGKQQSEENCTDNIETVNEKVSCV

With `CCN1CCN(c2nc(-c3ccc(OCCO)cc3)cc3cscc23)CC1` [Example 278, 4-(4-ethylpiperazin-1-yl)-6-[4-(2-hydroxyethoxy)phenyl]thieno-[3,4-c]pyridine oxalate] the Ki (serotonin 1A receptor) was 41.3 nM and the Ki (serotonin 2 receptor) was 4.61 nM.

Work on `CN1CCN(c2nc(-c3ccc(OCCO)cc3)cc3sccc23)CC1` [Example 279, 4-(4-methylpiperazin-1-yl)-6-[4-(2-hydroxyethoxy)phenyl]thieno[3,2-c]pyridine hydrochloride] yielded a Ki (serotonin 1A receptor) of 76.4 nM and a Ki (serotonin 2 receptor) of 1.44 nM.

Molecule `CCC(O)c1ccc(-c2cc3sccc3c(N3CCN(CC)CC3)n2)cc1` (centres unmarked) [Example 282, 4-(4-ethylpiperazin-1-yl)-6-[4-(1-hydroxypropyl)phenyl]thieno-[3,2-c]pyridine oxalate] has a Ki (serotonin 1A receptor) of 10.8 nM and a Ki (serotonin 2 receptor) of 6.46 nM.

`CCCC(O)c1ccc(-c2cc3sccc3c(N3CCN(CC)CC3)n2)cc1` (centres unmarked) [Example 283, 4-(4-ethylpiperazin-1-yl)-6-[4-1-hydroxybutyl)phenyl]thieno[3,2-c]pyridine oxalate] showed a Ki (serotonin 1A receptor) of 5.71 nM and a Ki (serotonin 2 receptor) of 6.43 nM.

With `CCN1CCN(c2nc(-c3cccc(OCCO)c3)cc3sccc23)CC1` [Example 284, 4-(1-ethylpiperazin-4-yl)-6-[3-(2-hydroxyethoxy)phenyl]thieno-[3,2-c]pyridine dihydrochloride] the Ki (serotonin 1A receptor) was 91.9 nM and the Ki (serotonin 2 receptor) was 75.9 nM.

`CCN1CCN(c2nc(-c3ccc(CCC(C)O)cc3)cc3sccc23)CC1` (centres unmarked) [Example 285, 4-(1-ethylpiperazin-4-yl)-6-[4-(3-hydroxybutyl)phenyl]thieno[3,2-c]pyridine hydrochloride] gave a Ki (serotonin 1A receptor) of 22.2 nM and a Ki (serotonin 2 receptor) of 1.96 nM.

In the case of `CCN1CCN(c2nc(-c3ccc(OCC(C)O)cc3)cc3sccc23)CC1` (centres unmarked) [Example 287, 4-(4-ethylpiperazin-1-yl)-6-[4-(2-hydroxypropoxy)phenyl]thieno[3,2-c]pyridine], the Ki (serotonin 1A receptor) is reported as 27.9 nM and the Ki (serotonin 2 receptor) is reported as 0.87 nM.

`CN1CCN(c2nc(-c3ccc(OCC(C)(C)O)cc3)cc3sccc23)CC1` [Example 288, 6-[4-(2-methyl-2-hydroxypropoxy)phenyl]-4-(4-methylpiperazin-1-yl)thieno[3,2-c]pyridine hydrochloride] showed a Ki (serotonin 1A receptor) of 80.9 nM and a Ki (serotonin 2 receptor) of 0.14 nM.

Work on `CCN1CCN(c2nc(-c3ccc(OCC(C)(C)O)cc3)cc3sccc23)CC1` [Example 290, 6-[4-(2-methyl-2-hydroxypropoxy)phenyl]-4-(4-ethylpiperazin-1-yl)thieno[3,2-c]pyridine dihydrochloride] yielded a Ki (serotonin 1A receptor) of 54.7 nM and a Ki (serotonin 2 receptor) of 1.35 nM.

`CCN1CCN(c2nc(-c3ccc(CCC(C)(C)O)cc3)cc3sccc23)CC1` [Example 291, 4-[4-ethylpiperazin-1-yl)-6-[4-(3-hydroxy-3-methylbutyl)phenyl]thieno[3,2-c]pyridine dihydrochloride] showed a Ki (serotonin 1A receptor) of 43.3 nM and a Ki (serotonin 2 receptor) of 1.44 nM.

With `CCN1CCN(c2nc(-c3ccc(OCCCC(C)(C)O)cc3)cc3sccc23)CC1` [Example 292, 6-[4-(4-methyl-4-hydroxypentyloxy)phenyl]-4-(4-ethylpiperazin-1-yl)thieno[3,2-c]pyridine] the Ki (serotonin 1A receptor) was 68.6 nM and the Ki (serotonin 2 receptor) was 22.4 nM.

For `CCN1CCN(c2nc(-c3cccc(OCCO)c3)cc3ccoc23)CC1` [Example 298, 7-(1-ethylpiperazin-4-yl)-5-[3-(2-hydroxyethoxy)phenyl]furo[2,3-c]pyridine dihydrochloride], the Ki (serotonin 1A receptor) was 1.72 nM and the Ki (serotonin 2 receptor) was 5.37 nM.

Molecule `CCN1CCN(c2nc(-c3ccc(CCCO)cc3)cc3ccoc23)CC1` [Example 299, 7-(1-ethylpiperazin-4-yl)-5-[4-(3-hydroxypropyl)phenyl]furo[2,3-c]pyridine dihydrochloride] has a Ki (serotonin 1A receptor) of 0.37 nM and a Ki (serotonin 2 receptor) of 30.1 nM.

Molecule `CCN1CCN(c2nc(-c3ccc(OCCO)cc3)cc3ccoc23)CC1` [Example 301, 7-(1-Ethylpiperazin-4-yl)-5-[4-(2-hydroxyethoxy)phenyl]furo[2,3-c]pyridine oxalate] has a Ki (serotonin 1A receptor) of 9.15 nM and a Ki (serotonin 2 receptor) of 12.7 nM.

Molecule `CCN1CCN(c2nc(-c3ccc(O[C@H](C)CO)cc3)cc3ccoc23)CC1` [Example 302, 7-(1-ethylpiperazin-4-yl)-5-{4-[(R)-2-hydroxy-1-methylethoxy]phenyl}furo[2,3-c]pyridine dihydrochloride] has a Ki (serotonin 1A receptor) of 0.53 nM and a Ki (serotonin 2 receptor) of 30 nM.

`CCN1CCN(c2nc(-c3ccc(O[C@@H](C)CO)cc3)cc3ccoc23)CC1` [Example 303, 7-(1-ethylpiperazin-4-yl)-5-{4-[(S)-2-hydroxy-1-methylethoxy]phenyl}furo[2,3-c]pyridine dihydrochloride] gave a Ki (serotonin 1A receptor) of 0.53 nM and a Ki (serotonin 2 receptor) of 44.4 nM.

Work on `CCN1CCN(c2nc(/C=C/c3ccc(OCCO)cc3)cc3ccoc23)CC1` [Example 307] yielded a Ki (serotonin 1A receptor) of 7.7 nM and a Ki (serotonin 2 receptor) of 11.5 nM.

Work on `CCN1CCN(c2nc(/C=C/c3ccccc3OCCO)cc3ccoc23)CC1` [Example 308, oxalate] yielded a Ki (serotonin 1A receptor) of 6.49 nM and a Ki (serotonin 2 receptor) of 19.5 nM.

In the case of `CCN1CCN(c2nc(-c3ccc(OCC(C)(C)O)cc3)cc3ccccc23)CC1` [Example 309, 1-(1-ethylpiperazin-4-yl)-3-[4-(2-hydroxy-2-methylpropoxy)phenyl]isoquinoline dihydrochloride], the Ki (serotonin 1A receptor) is reported as 91 nM and the Ki (serotonin 2 receptor) is reported as 0.01 nM.

With `CCN1CCN(c2nc(C#CC(O)c3ccccc3)cc3ccccc23)CC1` (centres unmarked) [Example 310, 1-(1-ethylpiperazin-4-yl)-3-(3-phenyl-3-hydroxy-1-propynyl)isoquinoline hydrochloride] the Ki (serotonin 1A receptor) was 4.4 nM and the Ki (serotonin 2 receptor) was 10.2 nM.

`CCN1CCN(c2nc(-c3ccc(OCCCO)cc3)cc3ccoc23)CC1` [Example 317, 7-(1-ethylpiperazin-4-yl)-5-[4-(3-hydroxypropoxy)phenyl]furo[2,3-c]pyridine dihydrochloride] showed a Ki (serotonin 1A receptor) of 12.2 nM and a Ki (serotonin 2 receptor) of 105 nM.

For `CCN1CCN(c2nc(-c3cccc(OCCO)c3)cc3ccccc23)CC1` [Example 329, 1-(4-Ethylpiperazin-1-yl)-3-[3-(2-hydroxyethoxy)phenyl]isoquinoline dihydrochloride], the Ki (serotonin 1A receptor) was 31.6 nM and the Ki (serotonin 2 receptor) was 73.6 nM.

`CCN1CCN(c2nc(-c3ccc4c(c3)OCCO4)cc3ccccc23)CC1` [Example 332, 1-(4-ethylpiperazin-1-yl)-3-(3,4-ethylenedioxyphenyl)isoquinoline dihydrochloride] gave a Ki (serotonin 1A receptor) of 13.9 nM and a Ki (serotonin 2 receptor) of 12.1 nM.

With `CCN1CCN(c2nc(-c3ccc(CCCOC)cc3)cc3ccccc23)CC1` [Example 333, 1-(4-ethylpiperazin-1-yl)-3-[4-(3-(methoxypropyl)phenyl]isoquinolinedihydrochloride] the Ki (serotonin 1A receptor) was 17.1 nM and the Ki (serotonin 2 receptor) was 6.1 nM.

`CCN1CCN(c2nc(-c3cc(OC)ccn3)cc3ccccc23)CC1` [Example 335, 1-(4-ethylpiperazin-1-yl)-3-(4-methoxypyridin-2-yl)isoquinoline dihydrochloride] was tested, and the Ki (serotonin 1A receptor) was 60.1 nM and the Ki (serotonin 2 receptor) was 20.3 nM.

With `CCN1CCN(c2nc(-c3ccc(OCC4OCCO4)cc3)cc3ccccc23)CC1` [Example 336, 1-(4-ethylpiperazin-1-yl)-3-[4-(1,3-dioxolan-2-ylmethyloxy)phenyl]isoquinoline] the Ki (serotonin 1A receptor) was 45.7 nM and the Ki (serotonin 2 receptor) was 2.6 nM.

`CCN1CCN(c2nc(-c3ccc(OCC(O)CO)cc3)cc3ccccc23)CC1` (centres unmarked) [Example 337, 1-(4-ethylpiperazin-1-yl)-3-[4-(2,3-dihydroxypropoxy)phenyl]isoquinoline dihydrochloride] was tested, and the Ki (serotonin 1A receptor) was 25.7 nM and the Ki (serotonin 2 receptor) was 5.6 nM.

With `CCN1CCN(c2nc(-c3ccc(OCC(N)=O)cc3)cc3ccccc23)CC1` [Example 338, 1-(4-ethylpiperazin-1-yl)-3-(4-carbamoylmethoxyphenyl)isoquinoline dihydrochloride] the Ki (serotonin 1A receptor) was 14.1 nM and the Ki (serotonin 2 receptor) was 61.9 nM.
